Experimental data: patent publication US12084430B2, “Tricyclic urea compounds as JAK2 V617F inhibitors” (Incyte Corporation, priority 2022, dated 2024)

Columns and labels:
TRKA [1] = biological target: TRKA (Homo sapiens, UniProt P04629); test: TRKA enzymatic assay; type: biochemical; settings: 1 mM ATP
Experimental: (§1) Example I. TRKA Enzymatic Assay
(§2) The kinase assays were carried out at 24° C. temperature in assay buffer (HEPES 50 mM, pH 7.0, NaN3 0.02%, BSA 0.01%, Orthovanadate 0.1 mM, DTT 1 mM, MgCl2 10 mM) in a final volume of 10 μL. Testing compounds were prepared by serial dilution in DMSO and transferred to the plate wells by ECHO liquid handler (Labcyte) with 0.5% DMSO in the final assay. […]. Reactions were initiated by the addition of 5 μL ATP in assay buffer. The final 10 μL kinase reaction consists of 0.58 nM TRKA, 1 mM ATP, 500 nM TK Substrate-biotin and SEB reagent 62.5 nM in assay buffer. […] After 60 minutes incubation at room temperature, the product activity was determined by measuring the fluorescence at 620 nm and 665 nm on Pherastar microplate reader (BMG Labtech). A ratio is calculated (665/620 nm) for each well. Wells with DMSO only were served as the positive controls and wells containing no ATP were used as negative controls. IC50 determination was performed by fitting the curve of percent control activity versus the log of the compound concentration using the Gene data.

TRKA [2] = test: TRKA enzymatic assay; type: biochemical
Experimental: as §1, §2

FLT3 = FLT3 enzymatic assay; type: biochemical
Experimental: Example C. FLT3 Enzymatic Assay
(§3) The kinase assays were carried out at room temperature in assay buffer (HEPES 50 mM, pH 7.0, NaN3 0.02%, BSA 0.01%, Orthovanadate 0.1 mM, DTT 1 mM, MgCl2 10 mM) in a final volume of 10 μL. Testing compounds were prepared by serial dilution in DMSO and transferred to the plate wells by ECHO liquid handler (Labcyte) with 0.5% DMSO in the final assay. […]. Reactions were initiated by the addition of 5 μL ATP in assay buffer. The final 10 μL kinase reaction consists of 0.011 nM FLT3, 1 mM ATP, 500 nM TK Substrate-biotin and SEB reagent 62.5 nM in assay buffer. […] The plates were then sealed and centrifuged at 1800 rpm for 2 minutes. After 60 minutes incubation at room temperature, the product activity was determined by measuring the fluorescence at 620 nm and 665 nm on Pherastar microplate reader (BMG Labtech). A ratio is calculated (665/620 nm) for each well. Wells with DMSO only were served as the positive controls and wells containing no ATP were used as negative controls. IC50 determination was performed by fitting the curve of percent control activity versus the log of the compound concentration using the GraphPad Prism 7.0 software.

[3] = In vitro intrinsic clearance; type: in vitro ADME; settings: human liver microsomes, 1 μM
Experimental: Example G. In Vitro Intrinsic Clearance Protocol
For in vitro metabolic stability experiments, test compounds were incubated with human liver microsomes at 37° C. The incubation mixture contained test compounds (1 μM), NADPH (2 mM), and human liver microsomes (0.5 mg protein/mL) in 100 mM phosphate buffer (pH 7.4). The mixture was pre-incubated for 2 min at 37° C. before the addition of NADPH. Reactions were commenced upon the addition of NADPH and quenched with ice-cold methanol at 0, 10, 20, and 30 min. Terminated incubation mixtures were analyzed using LC-MS/MS system. The analytical system consisted of a Shimadzu LC-30AD binary pump system and SIL-30AC autosampler (Shimadzu Scientific Instruments, Columbia, MD) coupled with a Sciex Triple Quad 6500+ mass spectrometer from Applied Biosystems (Foster City, CA). […] Mobile phase A consisted of 0.1% formic acid in water, and mobile phase B consisted of 0.1% formic acid in acetonitrile. The total LC-MS/MS runtime was 2.75 minutes with a flow rate of 0.75 mL/min. Peak area integrations and peak area ratio calculations were performed using Analyst software (version 1.6.3) from Applied Biosystems.
The in vitro intrinsic clearance, CLint, in vitro, was calculated from the t1/2 of test compound disappearance as CLint, in vitro=(0.693/t1/2)×(1/Cprotein), where Cprotein is the protein concentration during the incubation, and t1/2 was determined by the slope (k) of the log-linear regression analysis of the concentration versus time profiles; thus, t1/2=ln 2/k. The CLint, in vitro values were scaled to the in vivo values for human by using physiologically based scaling factors, hepatic microsomal protein concentrations (45 mg protein/g liver), and liver weights (21 g/kg body weight). The equation CLint=CLint, in vitro×(mg protein/g liver weight)×(g liver weight/kg body weight) was used. The in vivo hepatic clearance (CLH) was then calculated by using CLint and hepatic blood flow, Q (20 mL·min^−1·kg^−1 in humans) in the well-stirred liver model disregarding all binding from CLH=(Q×CLint)/(Q+CLint). The hepatic extraction ratio was calculated as CLH divided by Q.

KIT = KIT enzymatic assay; type: biochemical
Experimental: Example D. KIT Enzymatic Assay
as §3, with “0.12” for “0.011”, “KIT,” for “FLT3,”

[4] = tested on: STAT5 (Tyr694) phosphorylation in SET-2 cells; test: STAT5 (Tyr694) phosphorylation cell based assay; settings: Homo sapiens, pSTAT5, 2 hours, read-out: SET2 IC50
Experimental: Example E. STAT5 (Tyr694) Phosphorylation Cell Based Assay
SET-2 cells was purchased from DSMZ (Germany). RPMI1640 medium, Fetal Bovine Serum and 384-white sold flat-bottom small volume plate were purchased from Thermo Fisher Scientific (Waltham, MA). Phospho-STAT5 (Tyr694) HTRF kit was purchased from Perkin Elmer (Waltham, MA).
SET-2 cells were cultured in RPMI media with 20% FBS at 37° C. in humidified incubator supplied with 5% CO2. On the day of assay, the cells were centrifuged to remove the culture media and resuspended with prewarmed RPMI with 10% FBS. Testing compounds were prepared by serial dilution in DMSO and 50 nL/well test compounds were transferred to the 384 white low volume cell culture plate (Greiner Bio-one) by ECHO liquid handler (Labcyte). The cells were then dispensed with Multidrop (Thermo Fisher, Waltham, MA) at 10 μL/well (7×10^6 cells/mL) with 0.5% DMSO in the final assay. After the treated cells were incubated for 2 hours at 37° C./5% CO2 incubator, 4 μL/well supplemented lysis buffer (100× blocking buffer diluted 25 fold in 4× lysis buffer, Perkin Elmer) were added and incubated at room temperature for 90 min on orbital shaker at 600 rpm. Phospho-STAT5 Cryptate antibody and Phospho-STAT5 d2 antibody (1:1 vol/vol) were premixed and diluted 20 fold with in the detection buffer (Perkin Elmer). 4 μL of the premixed antibody solution were added to each well followed with 24 hours incubation at room temperature on orbital shaker at 600 rpm. The product activity was determined by measuring the fluorescence at 620 nm and 665 nm on Pherastar microplate reader (BMG Labtech). A ratio is calculated (665/620) for each well. Wells with DMSO only served as the positive controls and wells containing high concentration of control compound were used as negative controls. IC50 determination was performed by fitting the curve of percent control activity versus the log of the compound concentration using the GraphPad Prism 7.0 software.

Sequence of TRKA (Homo sapiens, UniProt P04629) (P04629 33-796, species assumed): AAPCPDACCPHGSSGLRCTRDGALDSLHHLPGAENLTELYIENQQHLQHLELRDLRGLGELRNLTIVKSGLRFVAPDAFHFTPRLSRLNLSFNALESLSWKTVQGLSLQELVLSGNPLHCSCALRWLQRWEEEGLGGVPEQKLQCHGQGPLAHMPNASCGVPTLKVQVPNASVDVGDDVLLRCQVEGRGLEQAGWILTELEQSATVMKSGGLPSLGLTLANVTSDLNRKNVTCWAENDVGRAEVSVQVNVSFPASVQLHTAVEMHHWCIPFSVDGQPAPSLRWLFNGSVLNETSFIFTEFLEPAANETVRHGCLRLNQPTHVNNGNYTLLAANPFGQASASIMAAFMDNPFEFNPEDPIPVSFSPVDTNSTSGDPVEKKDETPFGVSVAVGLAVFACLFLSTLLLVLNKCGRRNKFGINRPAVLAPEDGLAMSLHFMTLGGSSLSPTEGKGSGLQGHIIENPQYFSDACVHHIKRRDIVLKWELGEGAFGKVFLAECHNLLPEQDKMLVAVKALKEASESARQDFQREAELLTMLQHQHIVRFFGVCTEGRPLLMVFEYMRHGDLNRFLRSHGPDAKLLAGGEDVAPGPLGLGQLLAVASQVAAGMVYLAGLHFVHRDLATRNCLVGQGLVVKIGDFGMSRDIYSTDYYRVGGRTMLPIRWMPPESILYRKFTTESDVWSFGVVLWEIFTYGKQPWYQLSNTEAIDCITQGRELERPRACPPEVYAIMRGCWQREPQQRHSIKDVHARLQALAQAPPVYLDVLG

| Compound | IC50 (TRKA [1]) [nM] | Selectivity TRKA/JH2 V617F (TRKA [2]) | Selectivity FLT3/JH2 V617F (FLT3) | h-IntCL [3] | Selectivity KIT/JH2 V617F (KIT) | IC50 [4] [nM] |
| --- | --- | --- | --- | --- | --- | --- |
| Cn1cc(-c2[nH]c3ncc4c(c3c2-c2ccc3c(cnn3C)c2)n([C@H]2CC[C@@H](CC#N)CC2)c(=O)n4C)cn1 [C, reference compound] | < 25 | * (selectivity of ≤500-fold) | * (selectivity of ≤500-fold) | ‡ ‡ ‡ (h-IntCL of >1 L/h/kg) | * (selectivity of ≤500-fold) | ≤ 300 |
| COc1ccc(-c2c(-c3cnn(Cc4ccncc4)c3)[nH]c3ncc4c(c23)n(C2CCCC2)c(=O)n4C)cc1 [Comparative Example D, reference compound] | – | – | – | ‡ ‡ ‡ (h-IntCL of >1 L/h/kg) | – | ≤ 300 |
